Patent publication US9441012B2, “Fluorinated epoxyketone-based compounds and uses thereof as proteasome inhibitors” (FLUORINOV PHARMA INC., priority 2012, dated 2016)

Columns and labels:
Assay in all cases: NCI 60 human tumor cell line screen (SRB)
Type in all cases: cell-based
[1] = system: NCI-H322M; conditions: NCI-H322M (Non-Small Cell Lung Cancer); 48 h
Text: (§1) Representative compounds of Formula I were screened using the National Cancer Institute (NCI) screening panel, which consists of a panel of 60 different human tumor cell lines, representing leukemia [CCRF-CEM, HL-60 (TB), K-562, MOLT-4, SR], melanoma [LOX IMVI, MALME-3M, M14, SMDA-MB-435, SK-MEL-2, SK-MEL-28, SK-MEL-5, UACC-257 and UACC-62] and cancers of the lung [A549/ATCC, EKVX, HOP-62, HOP-93, NCI-H226, NCI-H23, NCI-H322M, NCI-H460], colon [COLO 205, HCT-116, HCT-15, HT29, KM12, SW-620], brain [SF-268, SF-295, SF-539, SNB-19, SNB-75, U251], ovary [IGROV1, OVCAR-3, OVCAR-4, OVCAR-5, OVCAR-8, NCI/ADR-RES, SK-OV-3], breast [MCF7, MDA-MB-231, BT-549, T-47D, MDA-MB-468], prostate [PC-3, DU-145], and renal[786-0, A498, ACHN, CAKI-1, RXF-393, SN12C, TK-10, UO-31] cancers.
(§2) After 24 h, two plates of each cell line are fixed in situ with TCA, to represent a measurement of the cell population for each cell line at the time of drug addition (Tz). Experimental drugs are solubilised in dimethyl sulfoxide at 400-fold the desired final maximum test concentration and stored frozen prior to use. At the time of drug addition, an aliquot of frozen concentrate is thawed and diluted to twice the desired final maximum test concentration with complete medium containing 50 μg/ml gentamicin. Additional four, 10-fold or ½ log serial dilutions are made to provide a total of five drug concentrations plus control. Aliquots of 100 μl of these different drug dilutions are added to the appropriate microtiter wells already containing 100 μl of medium, resulting in the required final drug concentrations.
(§3) Following drug addition, the plates are incubated for an additional 48 h at 37° C., 5% CO2, 95% air, and 100% relative humidity. For adherent cells, the assay is terminated by the addition of cold TCA (trichloroacetic acid). Cells are fixed in situ by the gentle addition of 50 μl of cold 50% (w/v) TCA (final concentration, 10% TCA) and incubated for 60 minutes at 4° C. The supernatant is discarded, and the plates are washed five times with tap water and air dried. Sulforhodamine B (SRB) solution (100 μl) at 0.4% (w/v) in 1% acetic acid is added to each well, and plates are incubated for 10 minutes at room temperature. After staining, unbound dye is removed by washing five times with 1% acetic acid and the plates are air dried. Bound stain is subsequently solubilised with 10 mM trizma base, and the absorbance is read on an automated plate reader at a wavelength of 515 nm. For suspension cells, the methodology is the same except that the assay is terminated by fixing settled cells at the bottom of the wells by gently adding 50 μl of 80% TCA (final concentration, 16% TCA). Using the seven absorbance measurements [time zero, (Tz), control growth, (C), and test growth in the presence of drug at the five concentration levels (Ti)], the percentage growth is calculated at each of the drug concentration levels. Percentage growth inhibition is calculated as: [(Ti−Tz)/(C−Tz)]×100 for concentrations in which Ti>/=Tz and [(Ti−Tz)/Tz]×100 for concentrations in which Ti<Tz.
(§4) Three dose response parameters are calculated for each experimental agent. Growth inhibition of 50% (GI50) is calculated from [(Ti−Tz)/(C−Tz)]100=50, which is the drug concentration resulting in a 50% reduction in the net protein increase (as measured by SRB staining) in control cells during the drug incubation. The drug concentration resulting in total growth inhibition (TGI) is calculated from Ti=Tz. The LC50 (concentration of drug resulting in a 50% reduction in the measured protein at the end of the drug treatment as compared to that at the beginning) indicating a net loss of cells following treatment is calculated from [(Ti−Tz)/Tz]×100=−50. Values are calculated for each of these three parameters if the level of activity is reached. However, if the effect is not reached or is exceeded, the value for that parameter is expressed as greater or less than the maximum or minimum concentration tested.

[2] = system: HCT-116; conditions: HCT-116 (Colon Cancer); 48 h
Text: as §1, §2, §3, §4

[3] = system: TK-10; conditions: TK-10 (Renal Cancer); 48 h
Text: as §1, §2, §3, §4

[4] = system: LOX IMVI; conditions: LOX IMVI (Melanoma); 48 h
Text: as §1, §2, §3, §4

[5] = system: SW-620; conditions: SW-620 (Colon Cancer); 48 h
Text: as §1, §2, §3, §4

[6] = system: OVCAR-5; conditions: OVCAR-5 (Ovarian Cancer); 48 h
Text: as §1, §2, §3, §4

[7] = system: HT29; conditions: HT29 (Colon Cancer); 48 h
Text: as §1, §2, §3, §4

[8] = system: NCI/ADR-RES; conditions: NCI/ADR-RES (Ovarian Cancer); 48 h
Text: as §1, §2, §3, §4

[9] = system: SNB-75; conditions: SNB-75 (CNS Cancer); 48 h
Text: as §1, §2, §3, §4

[10] = system: MALME-3M; conditions: MALME-3M (Melanoma); 48 h
Text: as §1, §2, §3, §4

[11] = system: HCC-2998; conditions: HCC-2998 (Colon Cancer); 48 h
Text: as §1, §2, §3, §4

[12] = system: RPMI-8226; conditions: RPMI-8226 (Leukemia); 48 h
Text: as §1, §2, §3, §4

SMILES | Log10GI50 [1] | Log10LC50 [1] | Log10TGI50 [1] | Log10GI50 [2] | Log10LC50 [2] | Log10TGI50 [2] | Log10GI50 [3] | Log10TGI50 [3] | Log10GI50 [4] | Log10LC50 [4] | Log10TGI50 [4] | Log10GI50 [5] | Log10LC50 [5] | Log10TGI50 [5] | Log10GI50 [6] | Log10LC50 [6] | Log10TGI50 [6] | Log10GI50 [7] | Log10LC50 [7] | Log10TGI50 [7] | other results
Cc1ncc(C(=O)N[C@@H](COC(F)F)C(=O)N[C@@H](COC(F)F)C(=O)N[C@@H](Cc2ccccc2)C(=O)[C@@]2(C)CO2)s1 [Example 1, 2-methyl-thiazole-5-carboxylic acid ((S)-1-{(S)-1-[(S)-1-benzyl-2-((R)-2-methyloxiranyl)-2-oxo-ethylcarbamoyl]-2-difluoromethoxyethylcarbamoyl}-2-difluoromethoxyethyl)-amide] | −5.54 | −4.23 | −4.74 | −7.32 | −6.17 | −6.71 | −6.71 | −6.06 | −6.96 | −6.16 | −6.56 | −7.39 | −4.40 | −5.95 | −6.18 | −4.17 | −5.30 | −7.29 | −4.32 | −6.22 | Log10GI50 [8]: −5.11; Log10LC50 [8]: >−4.00; Log10TGI50 [8]: −4.23; Log10GI50 [9]: −6.81; Log10LC50 [9]: >−4.00; Log10TGI50 [9]: −6.24; Log10GI50 [10]: −7.30; Log10LC50 [10]: >−4.00; Log10TGI50 [10]: −6.38; Log10GI50 [11]: −6.74; Log10LC50 [11]: −6.15; Log10TGI50 [11]: −6.45; Log10GI50 [12]: −7.40; Log10LC50 [12]: >−4.00; Log10TGI50 [12]: −4.86
C[C@]1(C(=O)[C@H](Cc2ccccc2)NC(=O)[C@H](COC(F)F)NC(=O)[C@H](COC(F)F)NC(=O)CN2CCOCC2)CO1 [Example 26, (S)-N-{(S)-1-[(S)-1-Benzyl-2-((R)-2-methyl-oxiranyl)-2-oxo-ethylcarbamoyl]-2-difluoromethoxyethyl}-3-difluoromethoxy-2-(2-morpholin-4-yl-acetylamino)-propio-namide] | −7.10 | >−4.00 | −6.33 | −7.70 | −6.55 | −7.30 | −7.49 | −6.07 | −7.73 | −7.10 | −7.42 | −7.41 | >−4.00 | −5.93 | −7.36 | >−4.00 | −6.44 | −7.45 | >−4.00 | −5.84 | Log10LC50 [3]: >−4.00; Log10GI50 [8]: −5.82; Log10LC50 [8]: >−4.00; Log10TGI50 [8]: >−4.00; Log10GI50 [9]: −7.71; Log10LC50 [9]: −6.35; Log10TGI50 [9]: −7.24; Log10GI50 [10]: −7.51; Log10LC50 [10]: >−4.00; Log10TGI50 [10]: −6.64; Log10GI50 [11]: −7.74; Log10LC50 [11]: −7.20; Log10TGI50 [11]: −7.47; Log10GI50 [12]: −7.52; Log10LC50 [12]: >−4.00; Log10TGI50 [12]: −7.04
CC(C)C[C@H](NC(=O)[C@H](Cc1ccccc1)NC(=O)[C@H](COC(F)F)NC(=O)CN1CCOCC1)C(=O)[C@@]1(C)CO1 [Example 25, (2S)-2-[[(2S)-3-(difluoromethoxy)-2-[(2-morpholinoacetyl)amino]propanoyl]amino]-N-[(1S)-3-methyl-1-[(2R)-2-methyloxirane-2-carbonyl]butyl]-3-phenyl-propanamide] | −7.10 | >−4.00 | −6.33 | −7.70 | −6.55 | −7.30 | −7.49 | −6.07 | −7.73 | −7.10 | −7.42 | −7.41 | >−4.00 | −5.93 | −7.36 | >−4.00 | −6.44 | −7.45 | >−4.00 | −5.84 | Log10LC50 [3]: >−4.00; Log10GI50 [8]: −5.82; Log10LC50 [8]: >−4.00; Log10TGI50 [8]: >−4.00; Log10GI50 [9]: −7.71; Log10LC50 [9]: −6.35; Log10TGI50 [9]: −7.24; Log10GI50 [10]: −7.51; Log10LC50 [10]: >−4.00; Log10TGI50 [10]: −6.64; Log10GI50 [11]: −7.74; Log10LC50 [11]: −7.20; Log10TGI50 [11]: −7.47; Log10GI50 [12]: −7.52; Log10LC50 [12]: >−4.00; Log10TGI50 [12]: −7.04
C[C@]1(C(=O)[C@H](Cc2ccccc2)NC(=O)[C@H](Cc2ccccc2)NC(=O)[C@H](COC(F)F)NC(=O)CN2CCOCC2)CO1 [Example 29] | −6.27 | −4.18 | −5.52 | −7.46 | >−4.00 | −5.91 | −6.55 | −5.10 | −7.50 | −6.35 | −6.90 | −7.40 | >−4.00 | −4.92 | −6.65 | >−4.00 | −5.58 | −7.31 | >−4.00 | −4.77 | Log10LC50 [3]: >−4.00; Log10GI50 [8]: −5.58; Log10LC50 [8]: >−4.00; Log10TGI50 [8]: >−4.00; Log10GI50 [9]: −6.83; Log10LC50 [9]: −5.96; Log10TGI50 [9]: −6.41; Log10GI50 [10]: −6.69; Log10LC50 [10]: >−4.00; Log10TGI50 [10]: −6.15; Log10GI50 [11]: −6.80; Log10LC50 [11]: −6.21; Log10TGI50 [11]: −6.50; Log10GI50 [12]: −7.40; Log10LC50 [12]: >−4.00; Log10TGI50 [12]: −6.43
